{"source": "patent EP4470537A1", "about": "“COMPOUND FOR USE IN TREATING FIBRODYSPLASIA OSSIFICANS PROGRESSIVA (FOP)” (Queen's University At Kingston, priority 2023, dated 2024)", "key": {"growth plates": {"test_system": "growth plates", "assay": "Long bone growth and growth plate toxicity in juvenile FVB mice", "conditions": "mouse, in vivo", "source_text": "For both palovarotene and compound 1 efficacy and toxicity were correlated to the pharmacokinetic parameters AUC (area under the curve), Cmax (maximum concentration detected following compound administration), and duration above EC50/IC50.This illustrated that efficacy was best predicted by duration above the EC50/IC50 (effective concentration for 50% response (in the case of palovarotene), or for 50% inhibition (in the case of compound 1)), whereas toxicity was best predicted by Cmax. […] For palovarotene, efficacy data from Example 7 and toxicity data from Example 8 above were compiled with mined data from the following publications: • Lindborg et al (2018). \"Cartilage-derived retinoic acid-sensitive protein (CD-RAP): A stage-specific biomarker of heterotopic endochondral ossification (HEO) in fibrodysplasia ossificans progressiva (FOP).\" Bone 109: 153-157. • Chakkalakal, S. A., et al. (2016). \"Palovarotene Inhibits Heterotopic Ossification and Maintains Limb Mobility and Growth in Mice With the Human ACVR1(R206H) Fibrodysplasia Ossificans Progressiva (FOP) Mutation.\" J Bone Miner Res 31(9): 1666-1675. • Inubushi, T., et al. (2018). \"Palovarotene Inhibits Osteochondroma Formation in a Mouse Model of Multiple Hereditary Exostoses.\" J Bone Miner Res 33(4): 658-666. • Lees-Shepard, J. B., et al. (2018). […]"}, "ectopic bone formation": {"test_system": "ectopic bone formation", "assay": "Genetic model of FOP (pinch injury, Acvr1 cR206H/+;Pdgfra-Cre+ mice)", "assay_type": "in vivo, mouse", "conditions": "for Mean ectopic bone volume D14 / percent change from vehicle (D14): day 14; for Mean ectopic bone volume D22 / percent change from vehicle (D22): day 22", "source_text": "Acvr1^(cR206H/+) mice were obtained from the International Fibrodysplasia Ossificans Progressiva Association (IFOPA, North Kansas City, MO, USA). These animals harbour a Cre recombinase-inducible Acvr1 transgenic allele, which causes a switch from wild-type mouse ACVR1 protein expression to that of a chimeric mouse/human protein containing the R206H mutation seen in >95% of FOP patients. These animals were intercrossed with Pdgfra-Cre expressing mice (C57BL/6-Tg(PDGFRA-cre)1Clc/J mice, available through The Jackson Laboratory, Bar Harbor, ME, USA) which activates Cre recombination in fibro-adipogenic precursors, currently believed to be the cells of origin for FOP (Lees-Shepard, J.B., et al (2018) Nat Commun 9, 471.). Resulting study animals (ACVR1^(R206H/+);Pdgfra-Cre+) are susceptible to injury-induced ectopic bone formation. These animals were subjected to a bilateral gastrocnemius pinch procedure under anaesthesia, whereby a Halsted-mosquito hemostat (product#13008-12, Fine Science Tools Inc., North Vancouver, BC, Canada) is used to compress the gastrocnemius muscle, at its widest part, to approximately 2mm for 5s, and then released. This injury elicits robust ectopic bone formation within 10-14 days (for description of procedure see, Lyu, H., et al. (2021). Biomedicines 9(6).). Animals began treatment with various doses of compound 1 (0.5 mg/kg BID, 1 mg/kg BID, 2 mg/kg BID, 4 mg/kg BID, 7.5 mg/kg BID and 10 mg/kg BID or 2 mg/kg QD and 10 mg/kg QD) or palovarotene (1.76 mg/kg QD or 0.88 mg/kg QD) or corn oil vehicle on the day following the procedure for 21 days. Micro-CT imaging was performed on day 14 (under anaesthesia) and at study termination (day 22), as outlined above in Example 7. Sites of ectopic bone formation in the area of the injury were volumetrically quantified using Class stratification in Imalytics Preclinical software (version 3.0.2.3, Gremse-IT GmbH, Aachen, Germany) from DICOM renderings. Using this model, the utility of compound 1 in inhibiting bone formation in a genetic mouse model of FOP was illustrated (see Figure 11 and Table 3 below). […]"}, "heterotopic ossification": {"test_system": "heterotopic ossification", "assay": "Surgical mouse model of heterotopic ossification (rhBMP2 collagen disk implant)", "assay_type": "in vivo", "procedure": "Disks were impregnated with 1µg total of recombinant human BMP-2 (GenScript, Piscataway, NJ, USA, catalog #Z02913, lot #P50031712) on the day of surgery (5µl of 200ng/µL BMP-2, reconstituted in 20mM acetic acid solution). The rhBMP2-soaked collagen disk was surgically implanted into a small pocket made in the left gastrocnemius muscle of a 6-8 week-old male CD-1 mouse.\nAt the study endpoint (Day 14: 16-30 hours after final compound treatment) left hindlimbs were removed and submitted to micro-CT (micro-computed tomography) imaging.\nCT images were acquired using a VECTor^4CT pre-clinical scanner (MILabs B.V., Utrecht, Netherlands) equipped with a cone beam X-ray CT system. Scans were carried out with an acceleration voltage of 50 kVp and an X-ray tube current of 430 µA in accurate focus mode to obtain 3600 projections over a 360° scan. […] CT images were consequently processed using MILabs reconstruction software implementing a voxel size of 20 µm and a Hann projection filter of 25 µm to generate 3-dimensional CT images. For quantification, CT images were converted to DICOM® files using PMOD 3.9 software (PMOD Technologies Ltd., Zurich, Switzerland) for rendering using RadiAnt DICOM Viewer 4.2 software (Medixant, Poznań, Poland). The region-of-interest for all hindlimbs, reconstructed from DICOM files, was defined by outlining sites of ectopic ossification. Analysis of total ectopic bone volume was conducted via automated processes using the AnalyzePro software with the Bone Microarchitecture Analysis (BMA) add-on (AnalyzeDirect, Overland Park, Kansas)."}, "RAR": {"test_system": "RAR", "assay": "RAR transcriptional activation assay (RARE-luc MCF-7 cells)", "assay_type": "cell-based", "conditions": "0.1 nM to 10 µM, 24 hours of treatment", "source_text": "This retinoid transcriptional activity assay measures the ability of a test compound to induce expression of a RA-sensitive reporter construct. This assay utilizes MCF-7 cells stably transduced with a gene construct comprising 4 tandem RA-response elements linked to a promoter driving transcriptional expression of the firefly luciferase encoding mRNA (RARE-luc). This construct serves as a sensitive reporter of retinoid-like activity.\nRARE-luc transduced MCF-7 cells were maintained in a RPMI-1640 medium containing 10% FBS. Cells were grown in 96-well plates, and treated with the test compound diluted in DMSO in duplicate at 0.1 nM, 1 nM, 10 nM, 100 nM, 1 µM and 10 µM final concentrations. As a positive control for reporter activation, cells were also treated with RA diluted in DMSO at the same concentrations. DMSO treatment alone served as a negative control. After 24 hours of treatment, cells were harvested lysis buffer (Molecular Devices, San Jose, USA) and luciferase activity in cell lysates were read using a luminometer."}}}
{"smiles": "CC(C)(C)c1cccc(-c2cc3cc(/C=C/C(=O)O)ccc3[nH]2)c1", "note": "[compound 1, (E)-3-(2-(3-(tert-butyl)phenyl)-1H-indol-5-yl)acrylic acid]", "values": [{"measurement": "disturbances to the growth of long bones and microarchitecture of the growth plates", "setting": "growth plates", "value": "not observed"}, {"measurement": "Mean ectopic bone volume D14", "setting": "ectopic bone formation; 0.5mg/kg BID", "value": "5.31 ± 6.65", "unit": "mm^3"}, {"measurement": "percent change from vehicle (D14)", "setting": "ectopic bone formation; 0.5mg/kg BID", "value": -51.9, "unit": "%"}, {"measurement": "Mean ectopic bone volume D22", "setting": "ectopic bone formation; 0.5mg/kg BID", "value": "4.01 ± 7.71", "unit": "mm^3"}, {"measurement": "percent change from vehicle (D22)", "setting": "ectopic bone formation; 0.5mg/kg BID", "value": -63.4, "unit": "%"}, {"measurement": "Mean ectopic bone volume D14", "setting": "ectopic bone formation; 1mg/kg BID", "value": "4.88 ± 6.79", "unit": "mm^3"}, {"measurement": "percent change from vehicle (D14)", "setting": "ectopic bone formation; 1mg/kg BID", "value": -55.8, "unit": "%"}, {"measurement": "Mean ectopic bone volume D22", "setting": "ectopic bone formation; 1mg/kg BID", "value": "5.50 ± 10.67", "unit": "mm^3"}, {"measurement": "percent change from vehicle (D22)", "setting": "ectopic bone formation; 1mg/kg BID", "value": -49.8, "unit": "%"}, {"measurement": "Mean ectopic bone volume D14", "setting": "ectopic bone formation; 2mg/kg BID", "value": "4.62 ± 5.80", "unit": "mm^3"}, {"measurement": "percent change from vehicle (D14)", "setting": "ectopic bone formation; 2mg/kg BID", "value": -58.1, "unit": "%"}, {"measurement": "Mean ectopic bone volume D22", "setting": "ectopic bone formation; 2mg/kg BID", "value": "5.08 ± 7.90", "unit": "mm^3"}, {"measurement": "percent change from vehicle (D22)", "setting": "ectopic bone formation; 2mg/kg BID", "value": -53.6, "unit": "%"}, {"measurement": "Mean ectopic bone volume D14", "setting": "ectopic bone formation; 2mg/kg QD", "value": "3.61 ± 4.98", "unit": "mm^3"}, {"measurement": "percent change from vehicle (D14)", "setting": "ectopic bone formation; 2mg/kg QD", "value": -67.3, "unit": "%"}, {"measurement": "Mean ectopic bone volume D22", "setting": "ectopic bone formation; 2mg/kg QD", "value": "1.77 ± 1.73", "unit": "mm^3"}, {"measurement": "percent change from vehicle (D22)", "setting": "ectopic bone formation; 2mg/kg QD", "value": -83.8, "unit": "%"}, {"measurement": "Mean ectopic bone volume D14", "setting": "ectopic bone formation; 4mg/kg BID", "value": "1.54 ± 2.85", "unit": "mm^3"}, {"measurement": "percent change from vehicle (D14)", "setting": "ectopic bone formation; 4mg/kg BID", "value": -86.1, "unit": "%"}, {"measurement": "Mean ectopic bone volume D22", "setting": "ectopic bone formation; 4mg/kg BID", "value": "2.65 ± 6.33", "unit": "mm^3"}, {"measurement": "percent change from vehicle (D22)", "setting": "ectopic bone formation; 4mg/kg BID", "value": -75.8, "unit": "%"}, {"measurement": "Mean ectopic bone volume D14", "setting": "ectopic bone formation; 7.5mg/kg BID", "value": "0.26 ± 0.42", "unit": "mm^3"}, {"measurement": "percent change from vehicle (D14)", "setting": "ectopic bone formation; 7.5mg/kg BID", "value": -97.6, "unit": "%"}, {"measurement": "Mean ectopic bone volume D22", "setting": "ectopic bone formation; 7.5mg/kg BID", "value": "0.06 ± 0.16", "unit": "mm^3"}, {"measurement": "percent change from vehicle (D14)", "setting": "ectopic bone formation; 10mg/kg BID", "value": -88.4, "unit": "%"}, {"measurement": "percent change from vehicle (D22)", "setting": "ectopic bone formation; 10mg/kg BID", "value": -87.2, "unit": "%"}, {"measurement": "Mean ectopic bone volume D14", "setting": "ectopic bone formation; 10mg/kg QD", "value": "1.56 ± 3.61", "unit": "mm^3"}, {"measurement": "percent change from vehicle (D14)", "setting": "ectopic bone formation; 10mg/kg QD", "value": -85.9, "unit": "%"}, {"measurement": "Mean ectopic bone volume D22", "setting": "ectopic bone formation; 10mg/kg QD", "value": "2.13 ± 6.10", "unit": "mm^3"}, {"measurement": "percent change from vehicle (D22)", "setting": "ectopic bone formation; 10mg/kg QD", "value": -80.6, "unit": "%"}, {"measurement": "efficacy in inhibiting bone formation", "setting": "ectopic bone formation; result in words, comparison with palovarotene", "value": "at least as efficacious as clinically relevant doses of palovarotene"}, {"measurement": "ectopic bone formation", "setting": "heterotopic ossification; result in words, 2 to 18 mg/kg QD or BID, 14 days, micro-CT", "value": "dose-dependent decrease in ectopic bone formation from vehicle"}, {"measurement": "luciferase activity", "setting": "RAR", "value": "did not induce luciferase activity significantly"}]}
{"smiles": "CC1(C)CCC(C)(C)c2cc(Cn3cccn3)c(/C=C/c3ccc(C(=O)O)cc3)cc21", "note": "[palovarotene, reference compound]", "values": [{"measurement": "Mean ectopic bone volume D14", "setting": "ectopic bone formation; 0.88mg/kg QD", "value": "2.42 ± 3.93", "unit": "mm^3"}, {"measurement": "percent change from vehicle (D14)", "setting": "ectopic bone formation; 0.88mg/kg QD", "value": -78.0, "unit": "%"}, {"measurement": "Mean ectopic bone volume D22", "setting": "ectopic bone formation; 0.88mg/kg QD", "value": "0.75 ± 0.97", "unit": "mm^3"}, {"measurement": "percent change from vehicle (D22)", "setting": "ectopic bone formation; 0.88mg/kg QD", "value": -93.2, "unit": "%"}, {"measurement": "Mean ectopic bone volume D14", "setting": "ectopic bone formation; 1.76mg/kg QD", "value": "1.54 ± 2.48", "unit": "mm^3"}, {"measurement": "percent change from vehicle (D14)", "setting": "ectopic bone formation; 1.76mg/kg QD", "value": -86.1, "unit": "%"}, {"measurement": "Mean ectopic bone volume D22", "setting": "ectopic bone formation; 1.76mg/kg QD", "value": "0.58 ± 0.96", "unit": "mm^3"}, {"measurement": "percent change from vehicle (D22)", "setting": "ectopic bone formation; 1.76mg/kg QD", "value": -94.7, "unit": "%"}, {"measurement": "percent change in HO volume from vehicle mean", "setting": "heterotopic ossification; 0.88mg/kg, 13 days, Day 14", "value": "+2.5%"}]}
